The compounds below were run against T1, human recombinant, purified wild type His-B-Raf protein kinase (Homo sapiens, UniProt P15056) (assay: B-Raf In Vitro ELISA Assay). Conditions: phosphorylation of MEK1 (0.15 μM) by 2.5 nM B-Raf, 10 μM ATP, 1 hour preincubation at 25° C.
T1 construct: His
Type: biochemical
Description: B-Raf In Vitro ELISA Assay
Activity of human recombinant, purified wild type His-B-Raf protein kinase was determined in vitro using an enzyme-linked immunosorbent assay (ELISA) assay format, which measures phosphorylation of the B-Raf substrate, human recombinant, purified His-derived (detagged) MEK1. The reaction utilized 2.5 nM B-Raf, 0.15 μM MEK1 and 10 μM adenosine triphosphate (ATP) in 40 mM N-(2-hydroxyethyl)piperazine-N′-(2-ethanesulfonic acid hemisodium salt (HEPES), 5 mM 1,4-dithio-DL-threitol (DTT), 10 mM MgCl2, 1 mM ethylenediaminetetraacetic acid (EDTA) and 0.2 M NaCl (1×HEPES buffer), with or without compound at various concentrations, in a total reaction volume of 25 μl in 384 well plates. B-Raf and compound were preincubated in 1×HEPES buffer for 1 hour at 25° C. Reactions were initiated with addition of MEK1 and ATP in 1×HEPES buffer and incubated at 25° C. for 50 minutes and reactions stopped by addition of 10 μl 175 mM EDTA (final concentration 50 mM) in 1× HEPES buffer. 5 μl of the assay mix was then diluted 1:20 into 50 mM EDTA in 1×HEPES buffer, transferred to 384 well black high protein binding plates and incubated overnight at 4° C. Plates were washed in tris buffered saline containing 0.1% Tween20 (TBST), blocked with 50 μl Superblock (Pierce) for 1 hour at 25° C., washed in TBST, incubated with 50 μl rabbit polyclonal anti-phospho-MEK antibody (Cell Signaling) diluted 1:1000 in TBS for 2 hours at 25° C., washed with TBST, incubated with 50 μl goat anti-rabbit horseradish peroxidase-linked antibody (Cell Signaling) diluted 1:2000 in TBS for 1 hour at 25° C. and washed with TBST. 50 μl of fluorogenic peroxidase substrate (Quantablu—Pierce) was added and following incubation for 45-60 minutes, 50 μl QuantabluSTOP (Pierce) was added. Blue fluorescent product was detected at excitation 325 and emission 420 using a TECAN Ultra plate reader. Data was graphed and IC50s calculated using Excel Fit (Microsoft).

T1 sequence (P15056 whole entry): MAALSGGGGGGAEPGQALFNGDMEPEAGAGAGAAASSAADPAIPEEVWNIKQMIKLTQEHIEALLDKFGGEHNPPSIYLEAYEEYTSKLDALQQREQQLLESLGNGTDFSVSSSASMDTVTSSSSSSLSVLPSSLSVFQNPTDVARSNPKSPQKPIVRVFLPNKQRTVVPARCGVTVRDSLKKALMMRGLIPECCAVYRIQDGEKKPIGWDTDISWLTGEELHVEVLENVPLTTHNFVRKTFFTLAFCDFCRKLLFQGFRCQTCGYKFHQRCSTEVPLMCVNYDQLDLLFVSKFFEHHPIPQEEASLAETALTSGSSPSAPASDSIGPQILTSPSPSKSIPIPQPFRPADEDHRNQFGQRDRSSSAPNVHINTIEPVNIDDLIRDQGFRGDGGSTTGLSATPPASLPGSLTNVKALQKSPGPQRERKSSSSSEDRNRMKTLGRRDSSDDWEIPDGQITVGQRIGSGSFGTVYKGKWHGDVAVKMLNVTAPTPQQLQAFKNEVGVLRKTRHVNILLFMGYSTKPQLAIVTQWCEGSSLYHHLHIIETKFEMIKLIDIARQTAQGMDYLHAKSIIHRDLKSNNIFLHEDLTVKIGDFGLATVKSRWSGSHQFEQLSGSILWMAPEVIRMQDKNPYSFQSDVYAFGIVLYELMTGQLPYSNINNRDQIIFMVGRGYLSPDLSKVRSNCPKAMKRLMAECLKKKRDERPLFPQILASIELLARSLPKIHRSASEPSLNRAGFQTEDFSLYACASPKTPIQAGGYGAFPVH

Compared with `Cc1cc(C(=O)Nc2cc(NC(=O)c3cccc(C(C)(C)C#N)c3)ccc2C)nc(N2CCCCC2)n1` [Example 1, N^1-[3-(1-Cyano-1-methylethyl)benzoyl]-N^3-[2-(piperidin-1-yl)-4-methylpyrimidin-6-ylcarbonyl]-4-methylbenzene-1,3-diamine], `Cc1cc(C(=O)Nc2cc(NC(=O)c3cccc(C(C)(C)C#N)c3)ccc2C)nc(N2CCOCC2)n1` [Example 7, N^1-[3-(1-Cyano-1-methylethyl)benzoyl]-N^3-[2-(morpholino)-4-methylpyrimidin-6-ylcarbonyl]-4-methylbenzene-1,3-diamine] is 9.5-fold lower in IC50: 5700 nM for the first, 600 nM for the second. The second is the more potent here.

`Cc1cc(C(=O)Nc2cc(NC(=O)c3cccc(C(F)(F)F)c3)ccc2C)nc(N2CCN(C)CC2)n1` [Example 49, N^1-(3-Trifluoromethylbenzoyl)-N^3-[2-(4-methylpiperazin-1-yl)-4-methylpyrimidin-6-ylcarbonyl]-4-methylbenzene-1,3-diamine] showed an IC50 of 800 nM.
